Structures are written as SMILES. Counter-ions that a name gives are not always drawn.

This passage reports EC50 and EC90 results from US20240327354A1, “GRAM-NEGATIVE BACTERIA EFFLUX PUMP INHIBITORS” (INSTITUT NATIONAL DE LA SANTÉ ET DE LA RECHERCHE MÉDICALE, priority 2021, published 2024).

The first test deals with E. coli BW25113. The test is described as follows: Assay 1: growth inhibition of E. coli by sub-inhibitory pyridomycin in combination with examples (resazurin reduction). In kind it is cell-based, Escherichia coli. The following applies: read-out: EC50 on E. coli with 8 μg/mL of pyridomycin, 8 μg/mL pyridomycin, 5 h, 37° C. From the text: (§1) Escherichia coli BW25113 (CGSC 7636) and its derivatives E. coli ΔtolC (JW5503-1, ΔtolC732::kan, CGSC 11430), E. coli ΔacrA (JW0452-3, ΔacrA748::kan, CGSC 11843) and E. coli ΔacrB (JW0451-2, ΔacrB747::kan, CGSC 8609) were obtained from E. coli Genetic Stock Center (CGSC, New Haven, Connecticut) and originated from the Keio Collection (Baba T et al, Mol Sys Biol, 2006). Klebsiella pneumoniae (LMG 2095/ATCC 13883) and K. pneumoniae (ATCC43816), Pseudomonas aeruginosa (PAO1), Acinetobacter baumannii (LMG 1025, ATCC 17978), were obtained from ATCC or BCCM/LMG Bacteria Collection. All bacteria were grown and tested in cation-adjusted Mueller-Hinton broth (CAMHB; BD Difco) at 37° C. For conservation, log phase bacteria were frozen (−80° C.) in CAMHB supplemented with 15% glycerol.
Briefly, E. coli BW25113 were diluted from frozen or growing stocks to an OD600 of 0.0004-0.001 in CAMHB. […] E. coli BW25113 viability was evaluated using the resazurin reduction assay, and measured by fluorescence (POLARstar Omega, BMG Labtech: Ex: 530 nm Em: 590 nm). EC50 were defined as the compound concentration that prevented 50% of resazurin turnover compared to the non-treated bacteria.
A general note: The colour change of resazurin is a common sign of viable cells or microbes.
On to `Clc1nc2ccccc2nc1N1CC2CC(C1)N2` [Example 83, 2-chloro-3-(3,6-diazabicyclo[3.1.1]heptan-3-yl)quinoxaline; trifluoromethanesulfonic acid], for which the EC50 was 100 to 500 µM.
Same read-out and setting: in the case of `COc1ccc(COC(=O)c2cnc(N3CCNCC3)c(Cl)c2)cc1` [Example 31, (4-methoxyphenyl)methyl 5-chloro-6-piperazin-1-yl-pyridine-3-carboxylate;hydrochloride] it was 5 to 100 µM.
In the case of `Brc1cnc(N2CCNCC2)c2ccccc12` [Example 44, 4-bromo-1-piperazin-1-yl-isoquinoline;hydrochloride], the EC50 is 100 to 500 µM.
`Brc1cc2ccccc2nc1N1CCNCC1` [Example 43, 3-bromo-2-piperazin-1-yl-quinoline;hydrochloride]: the EC50 is less than 5 µM.
Take `FC(F)(F)c1cnc(N2CCNCC2)c(Cl)c1` [Example 14, 1-[3-chloro-5-(trifluoromethyl)-2-pyridyl]piperazine; hydrochloride]: the EC50 was in the range of 5 to 100 µM.
As for `Clc1cc2ccccc2nc1N1CCCNCC1` [Example 11, 3-chloro-2-(1,4-diazepan-1-yl)quinoline], the EC50 is 5 to 100 µM.
With `Cc1nc(-c2cnc(N3CCNCC3)c(Cl)c2)no1` [Example 73, 3-(5-chloro-6-piperazin-1-yl-3-pyridyl)-5-methyl-1,2,4-oxadiazole;hydrochloride], the EC50 was 5 to 100 µM.
For `CN1CCN(c2ncc(Br)cc2Cl)CC1` [Example 4, 1-(5-bromo-3-chloro-2-pyridyl)-4-methyl-piperazine], the EC50 was in the range of 5 to 100 µM.
As to `CCOC(=O)c1cnc(N2CCNCC2)c(Cl)c1` [Example 32, ethyl 5-chloro-6-piperazin-1-yl-pyridine-3-carboxylate; hydrochloride], the EC50 lay in the range of 5 to 100 µM.
For `CN1CCN(c2ncc(C(F)(F)F)cc2Br)CC1` [Example 2, 1-[3-bromo-5-(trifluoromethyl)-2-pyridyl]-4-methyl-piperazine], the EC50 was in the range of 5 to 100 µM.
On to `Clc1cc2cc(N[C@@H]3CCNC3)ccc2nc1N1CCNCC1` [Example 103, 3-chloro-2-piperazin-1-yl-N-[(3R)-pyrrolidin-3-yl]quinolin-6-amine;dihydrochloride], for which the EC50 lay in the range of 5 to 100 µM.
As for `NCC#Cc1cnc(N2CCNCC2)c(Cl)c1` [Example 85, 3-(5-chloro-6-piperazin-1-yl-3-pyridyl)prop-2-yn-1-amine; 2,2,2-trifluoroacetic acid], the EC50 was in the range of 5 to 100 µM.
As to `NCCC#Cc1cnc(N2CCNCC2)c(Cl)c1` [Example 86, 4-(5-chloro-6-piperazin-1-yl-3-pyridyl)but-3-yn-1-amine; 2,2,2-trifluoroacetic acid], the EC50 lay in the range of 5 to 100 µM.
For the compound `Clc1cc(I)cnc1N1CCNCC1` [Example 79, 1-(3-chloro-5-iodo-2-pyridyl)piperazine], the EC50 was 5 to 100 µM.
Still for that read-out and setting: the same measure for `O=C1CCCN1c1ccc2nc(N3CCNCC3)c(Cl)cc2c1` [Example 97, 1-(3-chloro-2-piperazin-1-yl-6-quinolyl)pyrrolidin-2-one;hydrochloride]: less than 5 µM; for `COC(=O)c1cnc(N2CCNCC2)c(Cl)c1` [Example 18, methyl 5-chloro-6-piperazin-1-yl-pyridine-3-carboxylate; hydrochloride]: 5 to 100 µM; for `CN1CCN(c2ccc(C(F)(F)F)cc2Cl)CC1` [Example 5, 1-[2-chloro-4-(trifluoromethyl)phenyl]-4-methyl-piperazine]: 100 to 500 µM.
On to `NCCNc1ccc2nc(N3CCNCC3)c(Cl)cc2c1` [Example 62, N′-(3-chloro-2-piperazin-1-yl-6-quinolyl)ethane-1,2-diamine; dihydrochloride], for which the EC50 is less than 5 µM.
Regarding `NCCc1cccc(-c2ccc3nc(N4CCNCC4)c(Cl)cc3c2)c1` [Example 115, 2-[3-(3-chloro-2-piperazin-1-yl-6-quinolyl)phenyl]ethanamine;dihydrochloride], the EC50 is less than 5 µM.
On to `NCC1CCN(c2ccc3nc(N4CCNCC4)c(Cl)cc3c2)C1` (stereo not shown) [Example 100, [1-(3-chloro-2-piperazin-1-yl-6-quinolyl)pyrrolidin-3-yl]methanamine;dihydrochloride], for which the EC50 is less than 5 µM.
On to `NCCc1ccc(OC(=O)c2cnc(N3CCNCC3)c(Cl)c2)cc1` [Example 28, [4-(2-aminoethyl)phenyl] 5-chloro-6-piperazin-1-yl-pyridine-3-carboxylate;dihydrochloride], for which the EC50 is less than 5 µM.
On to `Clc1cc(C#Cc2ccccc2)cnc1N1CCNCC1` [Example 89, 1-[3-chloro-5-(2-phenylethynyl)-2-pyridyl]piperazine; 2,2,2-trifluoroacetic acid], for which the EC50 is 5 to 100 µM.
Same read-out and setting: the same measure for `NCC1CCN(c2ccc3nc(N4CCNCC4)c(Cl)cc3c2)CC1` [Example 99, [1-(3-chloro-2-piperazin-1-yl-6-quinolyl)-4-piperidyl]methanamine;dihydrochloride]: less than 5 µM.
On to `NCCc1ccc(NC(=O)c2cnc(N3CCNCC3)c(Cl)c2)cc1` [Example 34, N-[4-(2-aminoethyl)phenyl]-5-chloro-6-piperazin-1-yl-pyridine-3-carboxamide;dihydrochloride], for which the EC50 lay in the range of 5 to 100 µM.
Regarding `NCCc1nc(-c2cnc(N3CCNCC3)c(Cl)c2)no1` [Example 75, 2-[3-(5-chloro-6-piperazin-1-yl-3-pyridyl)-1,2,4-oxadiazol-5-yl]ethanamine;dihydrochloride], the EC50 is less than 5 µM.
As for `Clc1cc(Br)cnc1N1CCNCC1` [Example 19, 1-(5-bromo-3-chloro-2-pyridyl)piperazine;hydrochloride], the EC50 is 5 to 100 µM.
For `Clc1nc2ccccc2cc1N1CCNCC1` [Example 40, 2-chloro-3-piperazin-1-yl-quinoline;hydrochloride], the EC50 fell in the range of 5 to 100 µM.
`CN1CCN(c2nc3ccccc3cc2Cl)CC1` [Example 81, 3-chloro-2-(4-methylpiperazin-1-yl)quinoline]: the EC50 lay within 5 to 100 µM.
On to `CS(=O)(=O)Nc1cnc(N2CCNCC2)c(Cl)c1` [Example 36, N-(5-chloro-6-piperazin-1-yl-3-pyridyl)methane sulfonamide;hydrochloride], for which the EC50 was in the range of 100 to 500 µM.
For `Clc1cc2cc(Br)ccc2nc1N1CCNCC1` [Example 60, 6-bromo-3-chloro-2-piperazin-1-yl-quinoline;hydrochloride], the EC50 fell in the range of 5 to 100 µM.
Take `NCc1cccc(-c2ccc3nc(N4CCNCC4)c(Cl)cc3c2)c1Cl` [Example 136, [2-chloro-3-(3-chloro-2-piperazin-1-yl-6-quinolyl)phenyl]methanamine;dihydrochloride]: the EC50 was less than 5 µM.
On to `N[C@H]1CCN(c2ccc3nc(N4CCNCC4)c(Cl)cc3c2)C1` [Example 102, (3S)-1-(3-chloro-2-piperazin-1-yl-6-quinolyl)pyrrolidin-3-amine;dihydrochloride], for which the EC50 was less than 5 µM.
The same measure, in the same setting: in the case of `NCc1ccnc(-c2ccc3nc(N4CCNCC4)c(Cl)cc3c2)c1` [Example 131, [2-(3-chloro-2-piperazin-1-yl-6-quinolyl)-4-pyridyl]methanamine;dihydrochloride] it was less than 5 µM.
Turning to `Clc1cc2ncccc2nc1N1CCNCC1` [Example 69, 3-chloro-2-piperazin-1-yl-1,5-naphthyridine; hydrochloride], the EC50 was in the range of 5 to 100 µM.

The subject of another test is A. baumannii LMG 1025 (ATCC 17978). The test is described as follows: Assay 2: growth inhibition of A. baumannii by sub-inhibitory chloramphenicol in combination with examples (resazurin reduction). The following applies: read-out: EC90 on A. baumannii with 10 μg/mL of chloramphenicol, 10 μg/mL chloramphenicol, 5 h or 24 h, 37° C. In kind it is cell-based, Acinetobacter baumannii.
Text: as §1
Measurement of Growth Inhibition of A. baumannii Strains by Sub Inhibitory Concentrations of Chloramphenicol in Combination with Examples 1-137
For the evaluation of the dose dependent activity of examples 1-137, their ability to boost the antibacterial activity of sub-inhibitory concentrations chloramphenicol was determined. Briefly, A. baumannii LMG 1025 (ATCC 17978) were diluted from frozen or growing stocks to an OD600 of 0.001 in CAMHB. The bacterial suspension was then used as such (no-antibiotic control to evaluate EPI activity), or spiked with chloramphenicol at a final concentration of 10 μg/mL. Bacteria were then added to microplates carrying serial dilutions of the compounds examples 1-137, and incubated for (5 h or 24 h, 37° C.). Bacterial viability was evaluated using the resazurin reduction assay, and measured by fluorescence (POLARstar Omega, BMG Labtech: Ex: 530 nm Em: 590 nm). […] were defined as the compound concentration that prevented 90% of resazurin turnover compared to the non-treated bacteria.
For the compound `Clc1nc2ccccc2nc1N1CC2CC(C1)N2` [Example 83, 2-chloro-3-(3,6-diazabicyclo[3.1.1]heptan-3-yl)quinoxaline; trifluoromethanesulfonic acid], the EC90 lay in the range of 100 to 500 µM.
On the same count and under the same terms, in the case of `COc1ccc(COC(=O)c2cnc(N3CCNCC3)c(Cl)c2)cc1` [Example 31, (4-methoxyphenyl)methyl 5-chloro-6-piperazin-1-yl-pyridine-3-carboxylate;hydrochloride] it was 100 to 500 µM; in that of `Brc1cnc(N2CCNCC2)c2ccccc12` [Example 44, 4-bromo-1-piperazin-1-yl-isoquinoline;hydrochloride], 5 to 100 µM; in that of `Brc1cc2ccccc2nc1N1CCNCC1` [Example 43, 3-bromo-2-piperazin-1-yl-quinoline;hydrochloride], 100 to 500 µM.
Take `FC(F)(F)c1cnc(N2CCNCC2)c(Cl)c1` [Example 14, 1-[3-chloro-5-(trifluoromethyl)-2-pyridyl]piperazine; hydrochloride]: the EC90 is 100 to 500 µM.
For the compound `Clc1cc2ccccc2nc1N1CCCNCC1` [Example 11, 3-chloro-2-(1,4-diazepan-1-yl)quinoline], the EC90 is 100 to 500 µM.
For `Clc1nc2ccccc2nc1N[C@H]1[C@@H]2CNC[C@@H]21` [Example 51, N-[(1R,5S)-3-azabicyclo[3.1.0]hexan-6-yl]-3-chloro-quinoxalin-2-amine;hydrochloride], the EC90 lay in the range of 100 to 500 µM.
Still for that read-out and setting: the same measure for `FC(F)(F)c1cnc(N[C@H]2[C@@H]3CNC[C@@H]32)c(Cl)c1` [Example 16, (1R,5S)-N-[3-chloro-5-(trifluoromethyl)-2-pyridyl]-3-azabicyclo[3.1.0]hexan-6-amine;formic acid]: 100 to 500 µM.
As to `Clc1cc2ccccc2nc1N[C@H]1[C@@H]2CNC[C@@H]21` [Example 57, N-[(1R,5S)-3-azabicyclo[3.1.0]hexan-6-yl]-3-chloro-quinolin-2-amine;hydrochloride], the EC90 lay in the range of 100 to 500 µM.
